A value given as a limit tells only on which side of the number the result lay.

Results on 28 compounds are retold here after patent US8273890B2 (4SC AG, priority 2007, dated 2012).

T1 sequence (P53350 whole entry): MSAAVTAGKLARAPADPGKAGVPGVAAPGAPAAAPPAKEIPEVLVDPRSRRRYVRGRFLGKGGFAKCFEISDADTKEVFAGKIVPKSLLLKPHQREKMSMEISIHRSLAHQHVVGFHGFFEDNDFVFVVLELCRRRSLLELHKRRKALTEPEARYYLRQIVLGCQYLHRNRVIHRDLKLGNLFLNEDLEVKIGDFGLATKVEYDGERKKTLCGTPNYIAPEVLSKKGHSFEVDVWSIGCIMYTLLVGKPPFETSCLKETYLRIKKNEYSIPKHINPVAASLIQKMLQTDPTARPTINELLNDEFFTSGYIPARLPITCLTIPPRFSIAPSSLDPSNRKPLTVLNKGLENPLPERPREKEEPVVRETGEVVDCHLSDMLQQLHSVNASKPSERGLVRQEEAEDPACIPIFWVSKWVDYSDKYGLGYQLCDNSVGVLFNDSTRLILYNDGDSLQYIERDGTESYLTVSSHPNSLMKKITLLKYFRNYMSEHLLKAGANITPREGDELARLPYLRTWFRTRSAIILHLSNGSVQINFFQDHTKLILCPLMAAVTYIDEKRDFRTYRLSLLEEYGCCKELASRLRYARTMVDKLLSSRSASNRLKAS

This experiment has as its target T1, recombinant Plk1 protein (Homo sapiens, UniProt P53350).
T1 construct: histidine tag (N); made in house; host or cells: SF9 insect cells
The experiment can be described thus: Plk1 kinase activity inhibition assay (33P-ATP, alpha casein substrate, flash plates). It is filed as biochemical. The conditions noted are these: enzymatic assay, 100 nM Li-ATP, 80 minutes at 30° C. The method, then: The inhibition of Plk1 kinase activity can be measured using recombinant Plk1 protein expressed as an N-terminally histidine-tagged protein in SF9 insect cells and alpha casein as substrate. The Plk1 assay is run in 96 well plates by incubating 50 to 100 ng per well recombinant Plk1, 500 ng per well alpha casein (Sigma, # C-6780) as substrate, 10 μl of compound of invention (test compounds were dissolved as 20 mM solutions in dimethylsulfoxide (DMSO) and subsequently diluted), and 100 nM Li-ATP (including ^33P-ATP) in 100 μl of reaction buffer ([…] HEPES, pH 7.5; 3 mM MgCl2; 3 mM MnCl2; 3 μM Na-Orthovanadat; 1 mM DTT; 1 μg/ml PEG 8000) for 80 minutes at 30° C. The reactions are terminated by adding 100 μl stopping buffer (2% H3PO4 for 5 minutes) and are washed 3 times with washing solution (0.9% NaCl). Determining ^33P incorporated into the protein substrate alpha casein, the detection is based on the adhesion of the phosphorylated protein to the surface of scintillator-coated flash plates (Perkin Elmer, USA; #SMP-200). Phosphorylation of alpha casein is measured by counting the radioactivity bound to the plate for 60 sec. using a plate reader (Perkin Elmer, USA; Wallac Microbeta). By this method, the IC50 value of the Plk1 inhibition is determined as described above.
Take `CC(Oc1cc(-n2cnc3cc(CNC4CCN(C)CC4)ncc32)sc1C(N)=O)c1ccccc1F` (stereo not shown) [Example 156, 3-[-1-(2-fluorophenyl)ethoxy]-5-(6-{[(1-methylpiperidin-4-yl)amino]methyl}-3H-imidazo[4,5-c]pyridin-3-yl)thiophene-2-carboxamide]: the IC50 (in general, the concentration that inhibits the measured activity by half) lay within 1000 to 10000 nM.
The value for `CC(Oc1cc(-n2cnc3cc(CN4CCN(C(=O)c5ccccc5)CC4)ncc32)sc1C(N)=O)c1ccccc1F` (stereo not shown) [Example 160, 5-{6-[(4-benzoylpiperazin-1-yl)methyl]3H-imidazo[4,5-c]pyridin-3-yl}-3-[-1-(2-fluorophenyl)ethoxy]thiophene-2-carboxamide] was 1000 to 10000 nM; that for `C[C@@H](Oc1cc(-n2cnc3cnc(CN4CCN(C)CC4)cc32)sc1C(N)=O)c1ccccc1F` [Example 101, 3-[(1R)-1-(2-fluorophenyl)ethoxy]-5-{6-[(4-methylpiperazin-1-yl)methyl]-1H-imidazo[4,5-c]pyridin-1-yl}thiophene-2-carboxamide] was < 10 nM.
As for `NC(=O)c1sc(-n2cnc3cnccc32)cc1OCc1ccccc1OC(F)F` [Example 42, 3-{[2-(difluoromethoxy)benzyl]oxy}-5-(1H-imidazo[4,5-c]pyridin-1-yl)thiophene-2-carboxamide], the figure is < 10 nM; as for `CC(Oc1cc(-n2cnc3cc(CO)ncc32)sc1C(N)=O)c1ccccc1F` (stereo not shown) [Example 163, 3-[-1-(2-fluorophenyl)ethoxy]-5-[6-(hydroxymethyl)-3H-imidazo[4,5-c]pyridin-3-yl]thiophene-2-carboxamide], 10 to 100 nM.
The value for `C[C@@H](Oc1cc(-n2cnc3cnc(CN4CCN(C)C(=O)C4)cc32)sc1C(N)=O)c1ccccc1C(F)(F)F` [Example 72, 5-{6-[(4-methyl-3-oxopiperazin-1-yl)methyl]-1H-imidazo[4,5-c]pyridin-1-yl}-3-{(1R)-1-[2-(trifluoromethyl)phenyl]ethoxy}thiophene-2-carboxamide] was < 10 nM.
As for `NC(=O)c1sc(-n2cnc3ccncc32)cc1OCc1ccccc1OC(F)(F)F` [Example 29, 5-(3H-imidazo[4,5-c]pyridin-3-yl)-3-{[2-(trifluoromethoxy)benzyl]oxy}thiophene-2-carboxamide], the IC50 fell in the range of 10 to 100 nM.
With `C[C@@H](Oc1cc(-n2cnc3cnc(CN4CCN(c5ccccc5)CC4)cc32)sc1C(N)=O)c1ccccc1C(F)(F)F` [Example 59, 5-{6-[(4-phenylpiperazin-1-yl)methyl]-1H-imidazo[4,5-c]pyridin-1-yl}-3-{(1R)-1-[2-(trifluoromethyl)phenyl]ethoxy}thiophene-2-carboxamide], the concentration for half-maximal inhibition (IC50) fell in the range of 10 to 100 nM.
As for `C[C@@H](Oc1cc(-n2cnc3cnc(CN4CCN(CC(=O)N(C)C)CC4)cc32)sc1C(N)=O)c1ccccc1C(F)(F)F` [Example 87, 5-[6-({4-[2-(dimethylamino)-2-oxoethyl]piperazin-1-yl}methyl)-1H-imidazo[4,5-c]pyridin-1-yl]-3-{(1R)-1-[2-(trifluoromethyl)phenyl]ethoxy}thiophene-2-carboxamide], the figure is 10 to 100 nM; as for `CCCNCc1cc2c(cn1)ncn2-c1cc(O[C@H](C)c2ccccc2C(F)(F)F)c(C(N)=O)s1` [Example 113], 10 to 100 nM.
As for `NC(=O)c1sc(-n2cnc3cc(CO)ncc32)cc1OCc1ccccc1C(F)(F)F` [Example 10, 5-[6-(Hydroxymethyl)-3H-imidazo[4,5-c]pyridin-3-yl]-3-{[2-(trifluoromethyl)benzyl]oxy}thiophene-2-carboxamide], the figure is 100 to 1000 nM.
In the case of `C[C@@H](Oc1cc(-n2cnc3cc(CN4CCN(C)CC4)ncc32)sc1C(N)=O)c1ccccc1C(F)(F)F` [Example 49, 5-{6-[(4-methylpiperazin-1-yl)methyl]-3H-imidazo[4,5-c]pyridin-3-yl}-3-{(1R)-1-[2-(trifluoromethyl)phenyl]ethoxy}thiophene-2-carboxamide], the IC50 was 1000 to 10000 nM.
The value for `C[C@@H](Oc1cc(-n2cnc3cnc(CN4CCN(CCN(C)C)CC4)cc32)sc1C(N)=O)c1ccccc1F` [Example 136, 5-[6-({4-[2-(dimethylamino)ethyl]piperazin-1-yl}methyl)-1H-imidazo[4,5-c]pyridin-1-yl]-3-[(1R)-1-(2-fluorophenyl)ethoxy]thiophene-2-carboxamide] was 100 to 1000 nM; that for `CC(C)N1CCN(Cc2cc3c(cn2)ncn3-c2cc(O[C@H](C)c3ccccc3C(F)(F)F)c(C(N)=O)s2)CC1` [Example 121, 5-{6-[(4-isopropylpiperazin-1-yl)methyl]-1H-imidazo[4,5-c]pyridin-1-yl}-3-{(1R)-1-[2-(trifluoromethyl)phenyl]ethoxy}thiophene-2-carboxamide] was < 10 nM.
As for `CCN1CCN(Cc2cc3c(cn2)ncn3-c2cc(OC(C)c3ccccc3C)c(C(N)=O)s2)CC1` (stereo not shown) [Example 150, 5-{6-[(4-ethylpiperazin-1-yl)methyl]-1H-imidazo[4,5-c]pyridin-1-yl}-3-[1-(2-methylphenyl)ethoxy]thiophene-2-carboxamide], the figure is 10 to 100 nM; as for `COc1cc2c(ncn2-c2cc(OCc3ccccc3C(F)(F)F)c(C(N)=O)s2)nc1OC` [Example 21A, 5-(5,6-Dimethoxy-1H-imidazo[4,5-b]pyridin-1-yl)-3-{[2-(trifluoromethyl)benzyl]oxy}thiophene-2-carboxamide], 100 to 1000 nM; as for `C[C@@H](Oc1cc(-n2cnc3cnc(CN4CCS(=O)(=O)CC4)cc32)sc1C(N)=O)c1ccccc1C(F)(F)F` [Example 63, 5-{6-[(1,1-dioxidothiomorpholin-4-yl)methyl]-1H-imidazo[4,5-c]pyridin-1-yl}-3-{(1R)-1-[2-(trifluoromethyl)phenyl]ethoxy}thiophene-2-carboxamide], 10 to 100 nM.
Consider `CCc1ccccc1COc1cc(-n2cnc3cnc(CO)cc32)sc1C(N)=O` [Example 162, 3-[(2-ethylbenzyl)oxy]-5-[6-(hydroxymethyl)-1H-imidazo[4,5-c]pyridin-1-yl]thiophene-2-carboxamide], for which the IC50 lay in the range of 10 to 100 nM.
As for `C[C@@H](Oc1cc(-n2cnc3cc(CN)ncc32)sc1C(N)=O)c1ccccc1C(F)(F)F` [Example 50, 5-[6-(aminomethyl)-3H-imidazo[4,5-c]pyridin-3-yl]-3-{(1R)-1-[2-(trifluoromethyl)phenyl]ethoxy}thiophene-2-carboxamide], the figure is 10 to 100 nM; as for `NC(=O)c1sc(-n2cnc3ccncc32)cc1OCc1cccc(C(F)(F)F)c1` [Example 30, 5-(3H-imidazo[4,5-c]pyridin-3-yl)-3-{[3-(trifluoromethyl)benzyl]oxy}thiophene-2-carboxamide], 100 to 1000 nM.
The value for `CCN1CCN(Cc2cc3c(cn2)ncn3-c2cc(OC(C)c3ccccc3F)c(C(N)=O)s2)CC1` (stereo not shown) [Example 152, 5-{6-[(4-ethylpiperazin-1-yl)methyl]-1H-imidazo[4,5-c]pyridin-1-yl}-3-[1-(2-fluorophenyl)ethoxy]thiophene-2-carboxamide] was 10 to 100 nM; that for `CN(CCN1CCOCC1)C(=O)c1cc2c(cn1)ncn2-c1cc(OCc2ccccc2C(F)(F)F)c(C(N)=O)s1` [Example 11, 1-(5-Carbamoyl-4-{[2-(trifluoromethyl)benzyl]oxy}-2-thienyl)-N-methyl-N-(2-morpholin-4-ylethyl)-1H-imidazo[4,5-c]pyridine-6-carboxamide] was 1000 to 10000 nM; that for `CC(c1ccccc1)N1CCN(Cc2cc3c(cn2)ncn3-c2cc(O[C@H](C)c3ccccc3C(F)(F)F)c(C(N)=O)s2)CC1` (stereo partly drawn) [Example 119, 5-(6-{[4-(1-phenylethyl)piperazin-1-yl]methyl}-1H-imidazo[4,5-c]pyridin-1-yl)-3-{(1R)-1-[2-(trifluoromethyl)phenyl]ethoxy}thiophene-2-carboxamide] was < 10 nM.
As for `C[C@@H](Oc1cc(-n2cnc3cnc(CN4CCC(C(=O)N5CCN(C)CC5)CC4)cc32)sc1C(N)=O)c1ccccc1C(F)(F)F` [Example 91, 5-[6-({4-[(4-methylpiperazin-1-yl)carbonyl]piperidin-1-yl}methyl)-1H-imidazo[4,5-c]pyridin-1-yl]-3-{(1R)-1-[2-(trifluoromethyl)phenyl]ethoxy}thiophene-2-carboxamide], the figure is 10 to 100 nM; as for `C[C@@H](Oc1cc(-n2cnc3cnc(CN4C[C@@H]5C[C@H]4CN5)cc32)sc1C(N)=O)c1ccccc1C(F)(F)F` [Example 95, 5-{6-[(1S,4S)-2,5-diazabicyclo[2.2.1]hept-2-ylmethyl]-1H-imidazo[4,5-c]pyridin-1-yl}-3-{(1R)-1-[2-(trifluoromethyl)phenyl]ethoxy}thiophene-2-carboxamide], < 10 nM; as for `NC(=O)c1sc(-n2cnc3ccncc32)cc1OCc1ccc(C(F)(F)F)cc1` [Example 28, 5-(3H-imidazo[4,5-c]pyridin-3-yl)-3-{[4-(trifluoromethyl)benzyl]oxy}thiophene-2-carboxamide], 100 to 1000 nM.
Turning to `C[C@@H](Oc1cc(-n2cnc3cnc(CN4CCNCC4)cc32)sc1C(N)=O)c1ccccc1C(F)(F)F` [Example 92], the IC50 is < 10 nM.
As for `C[C@@H](Oc1cc(-n2cnc3cnc(CN4CCN(C(=O)N(C)C)CC4)cc32)sc1C(N)=O)c1ccccc1Br` [Example 133], the figure is < 10 nM.
